EC50 data for 26 molecules are collected here from patent US20260317357A1, “HETEROCYCLIC COMPOUNDS AS STING AGONISTS” (LigaChem Biosciences Inc., priority 2022, published 2026).

In general, EC50 refers to the concentration at which the effect is half-maximal.

In one experiment the target is T1, hSTING-R232 (Homo sapiens, UniProt Q86WV6, H232R).
T1 construct: host or cells: THP1 Dual KI-hSTING-R232 (STING HAQ gene removed, R232 variant gene introduced)
In words: STING agonist activity, THP1 Dual KI-hSTING-R232 IRF luciferase reporter cells. The format is cell-based. The note with it: 24 hours. Here is the method:
In order to evaluate the activity of the STING agonist, reporter cells from Invivogen were used. The cell lines used in the experiment were THP1 Dual™ (InvivoGen #thpd-nfis) expressing the endogenous STING variant HAQ and THP1 Dual™ KI-hSTING-R232 (InvivoGen #thpd-r232/h232) into which the STING R232 or H232 variant gene was injected after removing the STING HAQ gene. The cell lines have a luciferase reporter gene inserted below the IFN regulatory factor (IRF) promoter, and thus the activity of the IFN regulatory factor (IRF) mechanism can be evaluated through luciferase expression.
The reporter cells were plated at 9.0×10^4 cells/100 μL per well in a 96-well plate using RPMI 1640 medium (Gibco, #22400097) supplemented with 10% heat-inactivated FBS and 1×Antibiotic-Antimycotic (Gibco, #15240062), 10 μg/mL blasticidin (Gibco, #A1113902), and 100 μg/mL Zeocin (Gibco, #R25005). The plated cells were cultured at 37° C., 5% CO2 for 24 hours, and then treated with 100 μL of the serially diluted compound in each well, and then cultured at 37° C., 5% CO2 for 24 hours. After culturing, 20 μL of the cell culture medium was transferred to a 96 well white plate, and QUANTI-Luc™ (InvivoGen #rep-qlcl) was added at 50 µL/well. Using a microplate reader (Perkin Elmer), the value of the luminescence signal increased in the experimental group treated with the drug compared to the control group not treated with the drug was calculated. EC50 values were derived according to the concentration of the compound using GraphPad Prism.

For another experiment, the target named is T2, human STING (Homo sapiens, UniProt Q86WV6).
T2 construct: purchased Cisbio #64BDSTGPEG
T2 sequence (Q86WV6 whole entry): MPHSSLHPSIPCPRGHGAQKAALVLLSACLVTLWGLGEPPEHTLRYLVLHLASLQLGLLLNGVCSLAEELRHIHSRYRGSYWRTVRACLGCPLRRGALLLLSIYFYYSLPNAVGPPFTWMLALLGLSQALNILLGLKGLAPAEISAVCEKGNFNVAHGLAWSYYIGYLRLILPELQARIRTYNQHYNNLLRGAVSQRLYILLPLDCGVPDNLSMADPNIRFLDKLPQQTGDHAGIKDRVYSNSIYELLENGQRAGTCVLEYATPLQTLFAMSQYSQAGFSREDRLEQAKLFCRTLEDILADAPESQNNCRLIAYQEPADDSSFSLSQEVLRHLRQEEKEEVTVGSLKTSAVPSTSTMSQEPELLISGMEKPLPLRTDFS
Briefly: Direct binding potency, HUMAN STING WT BINDING KIT (Cisbio). The following applies: in vitro. An excerpt:
Additionally, or analysis of direct binding potency of STING agonist compounds described herein to human STING, HUMAN STING WT BINDING KIT (Cisbio, #64BDSTGPEG) was used according to the manufacturer's instruction.

T1 sequence (Q86WV6 whole entry H232R): as the sequence (Q86WV6 whole entry) above, with H232R counted along it

With `CCn1nc(C)cc1C(=O)Nc1nc2cc(C(N)=O)cc(OC)c2n1C/C=C/Cn1c(NC(=O)c2cc(C)nn2CC)nc2cc(C(N)=O)cc(OC/C=C/CNC(=N)N)c21` [Compound 166], the EC50 at hSTING-R232 was determined as 1.17 nM.

For `CCn1nc(C)cc1C(=O)Nc1nc2cc(C(N)=O)cc(OC)c2n1C/C=C/Cn1c(NC(=O)c2cc(C)nn2CC)nc2cc(C(N)=O)cc(OC/C=C/CN3CCNCC3)c21` [Compound 23], the response at hSTING-R232 was half-maximal at 6.43 nM (EC50).

On to `CCn1nc(C)cc1C(=O)Nc1nc2cc(C(N)=O)cc(OC)c2n1C/C=C/Cn1c(NC(=O)c2cc(C)nn2CC)nc2cc(C(N)=O)cc(OC/C=C/[C@@H]3CCCN3)c21` [Compound 120], for which the EC50 at hSTING-R232 amounted to 2.25 nM.

For `CCn1nc(C)cc1C(=O)Nc1nc2cc(C(N)=O)cc(OC)c2n1C/C=C/Cn1c(NC(=O)c2cc(C)nn2CC)nc2cc(C(N)=O)cc(OC/C=C/Cn3ncc(CN)n3)c21` [Compound 110], on hSTING-R232, the midpoint of the response, the EC50, lay at 1.36 nM.

Consider `CCc1nc(C)oc1C(=O)Nc1nc2cc(C(N)=O)cc(OC/C=C/Cn3cc(N)cn3)c2n1C/C=C/Cn1c(NC(=O)c2cc(C)nn2CC)nc2cc(C(N)=O)cc(OC)c21` [Compound 151], for which the EC50 on hSTING-R232 came to 2.21 nM; at human STING, 0.13 nM.

On hSTING-R232, `CCn1nc(C)cc1C(=O)Nc1nc2cc(C(N)=O)cc(OC)c2n1C/C=C/Cn1c(NC(=O)c2cc(C)nn2CC)nc2cc(C(N)=O)cc(OCC#CCn3cc(N)cn3)c21` [Compound 178] displayed an EC50 of 0.7 nM.

Take `CCn1nc(C)cc1C(=O)Nc1nc2cc(C(N)=O)cc(OC)c2n1C/C=C/Cn1c(NC(=O)c2cc(C)nn2CC)nc2cc(C(N)=O)cc(OC/C=C\CN3CCOCC3)c21` [Compound 33]: the midpoint of the response on hSTING-R232, the EC50, lay at 0.93 nM.

`CCn1nc(C)cc1C(=O)Nc1nc2cc(C(N)=O)cc(OC)c2n1C/C=C/Cn1c(NC(=O)c2cc(C)nn2CC)nc2cc(C(N)=O)cc(OC/C=C/COc3cccc(N)c3)c21` [Compound 95] registered an EC50 at hSTING-R232 of 1.75 nM.

With `CCn1nc(C)cc1C(=O)Nc1nc2cc(C(N)=O)cc(OC)c2n1C/C=C/Cn1c(NC(=O)c2cc(C)nn2CC)nc2cc(C(N)=O)cc(OC/C=C/CC3CCNCC3)c21` [Compound 89], the EC50 on hSTING-R232 is 6.97 nM.

`CCn1nc(C)cc1C(=O)Nc1nc2cc(C(N)=O)cc(OC)c2n1C/C=C/Cn1c(NC(=O)c2cc(C)nn2CC)nc2cc(C(N)=O)cc(OCC#CCN3CCOCC3)c21` [Compound 48] gave an EC50 at hSTING-R232 of 0.69 nM.

Consider `CCc1nc(C)oc1C(=O)Nc1nc2cc(C(N)=O)cc(OC/C=C/Cn3cc(N)cn3)c2n1C/C=C/Cn1c(NC(=O)c2cc(C)nn2CC)nc2cc(C(N)=O)cc(OC)c21` [Compound 222], for which the EC50 on hSTING-R232 was determined as 2.72 nM.

For `CCc1nc(C)sc1C(=O)Nc1nc2cc(C(N)=O)cc(OC/C=C/Cn3cc(N)cn3)c2n1C/C=C/Cn1c(NC(=O)c2cc(C)nn2CC)nc2cc(C(N)=O)cc(OC)c21` [Compound 155], the values for the EC50 on hSTING-R232 and at human STING were 2.6 nM and 0.4 nM, respectively.

As for `CCn1nc(C)cc1C(=O)Nc1nc2cc(C(N)=O)cc(OC)c2n1C/C=C/Cn1c(NC(=O)c2cc(C)nn2CC)nc2cc(C(N)=O)cc(OC/C=C/CNC(=O)N3CCNCC3)c21` [Compound 147], at hSTING-R232, the EC50 worked out at 4.03 nM.

Regarding `CCn1nc(C)cc1C(=O)Nc1nc2cc(C(N)=O)cc(OC)c2n1C/C=C/Cn1c(NC(=O)c2cc(C)nn2CC)nc2cc(C(N)=O)cc(OC/C=C\CN3CCNCC3=O)c21` [Compound 43], a half-maximal response on hSTING-R232 (EC50) required 2.81 nM.

In turn, `CCn1nc(C)cc1C(=O)Nc1nc2cc(C(N)=O)cc(OC)c2n1C/C=C/Cn1c(NC(=O)c2cc(C)nn2CC)nc2cc(C(N)=O)cc(OC/C=C/CN)c21` [Compound 145] gave an EC50 on hSTING-R232 of 2.23 nM.

`CCn1nc(C)cc1C(=O)Nc1nc2cc(C(N)=O)cc(O)c2n1C/C=C/Cn1c(NC(=O)c2cc(C)nn2CC)nc2cc(C(N)=O)cc(OC/C=C/Cn3cc(N)cn3)c21` [Compound 69] had an EC50 on hSTING-R232 of 0.85 nM.

On to `CCn1nc(C)cc1C(=O)Nc1nc2cc(C(N)=O)cc(OC)c2n1C/C=C/Cn1c(NC(=O)c2cc(C)nn2CC)nc2cc(C(N)=O)cc(OCCCS(C)(=N)=O)c21` (stereo not shown) [Compound 187], for which the EC50 at hSTING-R232 worked out at 4.13 nM.

In turn, `CCn1nc(C)cc1C(=O)Nc1nc2cc(C(N)=O)cc(OC/C=C/Cn3cc(N)cn3)c2n1C/C=C/Cn1c(NC(=O)c2cc(C)nn2CC)nc2cc(C(N)=O)cc(OCCCS(C)(=N)=O)c21` (stereo not shown) [Compound 197] gave a 50% effective concentration (EC50) at hSTING-R232 of 8.13 nM.

Consider `CCn1nc(C)cc1C(=O)Nc1nc2cc(C(N)=O)cc(OC)c2n1C/C=C/Cn1c(NC(=O)c2cc(C)nn2CC)nc2cc(C(N)=O)cc(OC/C=C/Cn3cc(N)c(C(=O)OC)n3)c21` [Compound 163], for which, at hSTING-R232, the EC50 was determined as 0.96 nM.

For `CCn1nc(C)cc1C(=O)Nc1nc2cc(C(N)=O)cc(OC)c2n1C/C=C/Cn1c(NC(=O)c2cc(C)nn2CC)nc2cc(C(N)=O)cc(OC/C=C/COC(=O)N(C)CCNC)c21` [Compound 221], on hSTING-R232, the response was half-maximal at 3.48 nM (EC50).

For `CCn1nc(C)cc1C(=O)Nc1nc2cc(C(N)=O)cc(OC)c2n1C/C=C/Cn1c(NC(=O)c2cc(C)nn2CC)nc2cc(C(N)=O)cc(OC/C=C/Cn3cc(NCCC(=O)O)cn3)c21` [Compound 175], on hSTING-R232, the concentration giving a half-maximal response (EC50) was 3.96 nM.

Turning to `CCn1nc(C)cc1C(=O)Nc1nc2cc(C(N)=O)cc(OC)c2n1C/C=C/Cn1c(NC(=O)c2cc(C)nn2CC)nc2cc(C(N)=O)cc(OC/C=C/Cn3cc(CN)nn3)c21` [Compound 139], at hSTING-R232, the EC50 is 2.25 nM.

In turn, `CCn1nc(C)cc1C(=O)Nc1nc2cc(C(N)=O)cc(OC)c2n1C/C=C/Cn1c(NC(=O)c2cc(C)nn2CC)nc2cc(C(N)=O)cc(OC/C=C/Cn3cc(N)c(C(=O)O)n3)c21` [Compound 164] came in with an EC50 at hSTING-R232 of 1.04 nM.

Take `CCn1nc(C)cc1C(=O)Nc1nc2cc(C(N)=O)cc(OC)c2n1C/C=C/Cn1c(NC(=O)c2cc(C)nn2CC)nc2cc(C(N)=O)cc(OC/C=C/Cn3ncc4cc(N)ccc43)c21` [Compound 127]: on hSTING-R232, the EC50 amounted to 0.47 nM.

On hSTING-R232, `CCn1nc(C)cc1C(=O)Nc1nc2cc(C(N)=O)cc(OC)c2n1C/C=C/Cn1c(NC(=O)c2cc(C)nn2CC)nc2cc(C(N)=O)cc(OC/C=C\CN3CCC(N)CC3)c21` [Compound 38] yielded an EC50 of 10.3 nM.

Consider `CCn1nc(C)cc1C(=O)Nc1nc2cc(C(N)=O)cc(OC)c2n1C/C=C/Cn1c(NC(=O)c2cc(C)nn2CC)nc2cc(C(N)=O)cc(OC/C=C/CN3CCOCC3)c21` [Compound 13], for which the EC50 at hSTING-R232 amounted to 0.54 nM.
